Data published in patent publication US7863247B1, “Prevention of fetal alcohol syndrome and neuronal cell death with ADNF polypeptides” (Ramot-University Authority for Applied Research and …, priority 2000, dated 2011).
No end group written: not given here.

Columns and labels:
[1] = test system: C57-B16J mice exposed to alcohol in utero; test: Fetal death (% demises at E18) in the FAS model; format: in vivo; conditions: pretreatment 30 min prior to alcohol on E8 (NAP 20 μg; NAP 20 μg+SAL 20 μg; VIP 1 μg); counted at E18
Method: (§1) A published well-delineated model for FAS was followed (Webster et al., Neurobehav Tox, 2:227-34 (1980)). Animals were injected (intraperitoneal) on E8 with 25% ethyl alcohol in saline (v/v) or vehicle alone at 0.030 ml/g body weight at 0900 on E8. Pretreatment with VIP and ADNF polypeptides (e.g., NAP, SAL, NAP+SAL) were given 30 min prior to alcohol. Post-treatment with NAP+SAL was given at 1 or 3 h after alcohol. Dosages of the neuropeptides were NAP (20 μg and 40 μg), SAL (20 μg), NAP (20 μg)+SAL (20 μg); VIP (1 μg). NAP+SAL without alcohol was also studied. NAP was diluted in 50 μl DMSO and diluted in filtered Dulbecco's phosphate buffered saline (DPBS). SAL was dissolved and diluted in filtered DPBS. VIP was dissolved in 20 μl glacial acetic acid and diluted in HPLC water and DPBS. […]
(§2) At E18 (embryonic gestation day 18), the number of live and demised fetuses was determined. […] The mean fetal weights were determined for each mother, and this was used for statistical analysis.
(§3) The mean litter pup and fetal brain weight was calculated, with the litter mean used for all statistical analysis. Percent demises were calculated by dividing the number of demises by the total number of fetuses (live plus demises). […]

[2] = test system: C57-B16J mice exposed to alcohol in utero; test: Fetal weights at E18 in the FAS model; format: in vivo
Method: A published well-delineated model for FAS was followed (Webster et al., Neurobehav Tox, 2:227-34 (1980)). Animals were injected (intraperitoneal) on E8 with 25% ethyl alcohol in saline (v/v) or vehicle alone at 0.030 ml/g body weight at 0900 on E8. Pretreatment with VIP and ADNF polypeptides (e.g., NAP, SAL, NAP+SAL) were given 30 min prior to alcohol. Post-treatment with NAP+SAL was given at 1 or 3 h after alcohol. Dosages of the neuropeptides were NAP (20 μg and 40 μg), SAL (20 μg), NAP (20 μg)+SAL (20 μg); VIP (1 μg). NAP+SAL without alcohol was also studied. NAP was diluted in 50 μl DMSO and diluted in filtered Dulbecco's phosphate buffered saline (DPBS). SAL was dissolved and diluted in filtered DPBS. VIP was dissolved in 20 μl glacial acetic acid and diluted in HPLC water and DPBS. Since the animals receiving alcohol were incapacitated for approximately 6 hours following injection, food and water were withheld from all groups for the initial 6 hours, to allow accurate assessment of fetal weights.
At E18 (embryonic gestation day 18), the number of live and demised fetuses was determined. Fetal weights and fetal brain weights were obtained for each fetus in the litter. The mean fetal weights were determined for each mother, and this was used for statistical analysis.
The mean litter pup and fetal brain weight was calculated, with the litter mean used for all statistical analysis. Percent demises were calculated by dividing the number of demises by the total number of fetuses (live plus demises). Statistical analysis included ANOVA for continuous variables, Mann-Whitney U for nonparametic data, Chi square for categorical variables or Fisher's exact test where appropriate [Statview 4.5 (Abacus Concepts, Inc., Berkeley, Calif.)] with p<0.05 considered significant. Results are presented as mean±standard error unless specified.

[3] = Bioavailability of 3H-NAP to embryos (size exclusion chromatography); format: in vivo, mice
Method: FIG. 7a and FIG. 7b illustrate chromatographs of radiolabel (^3H) present in 1 ml fractions from a size exclusion column (Superdex Peptide HR 10/30, Pharmacia Biotech). ^3H-NAP (2 μCi/20 μg) was administered intraperitoneally to pregnant mice at E8. Intact NAP was present in fractions 15-17 denoted by shaded grey bar on graphs. FIG. 7a illustrates a pooled sample of three embryos (different litters) after a thirty minute exposure to ^3H-NAP. Based on this accumulation of labeled peptide, approximately 1 pmoles of NAP was found in the embryo, with an estimated concentration of 10 nM, well within the therapeutic range of NAP. FIG. 7b illustrates a pooled sample of three embryos (different litters) after a sixty minute exposure to ^3H-NAP.
The bioavailability of NAP to embryos was assessed by intraperitoneal administration of ^3H-NAP (2 μCi/20 μg) to pregnant mice at E8. […] Based on this accumulation of labeled peptide, approximately […] of NAP was found in the embryo, with an estimated concentration of 10 nM, well within the therapeutic range of NAP.

[4] = test system: C57-B16J mice exposed to alcohol in utero; test: Fetal brain weights at E18 in the FAS model; format: in vivo; conditions: pretreatment 30 min prior to alcohol on E8 (SAL 20 μg; NAP 20 μg+SAL 20 μg)
Method: as §1, §2, §3

[5] = pretreatment 30 min prior to alcohol on E8 (NAP 20 μg; SAL 20 μg; NAP 20 μg+SAL 20 μg; VIP 1 μg)

Substance	percentage of fetal demises [1]	fetal weights (alcohol-induced growth restriction) [2, 5]	fetal weights (alcohol-induced growth restriction) ([2]; pretreatment with a double dosage of NAP (40 μg))	estimated concentration of NAP in the embryo ([3]; 3H-NAP 2 μCi/20 μg intraperitoneal at E8, 30 min)	radioactivity recovered in the embryo co-migrating with intact NAP ([3]; 3H-NAP 2 μCi/20 μg intraperitoneal to pregnant mice at E8, 30 min after administration)	fetal brain weights (alcohol-induced microcephaly) [4]
Asn-Ala-Pro-Val-Ser-Ile-Pro-Gln [NAP]	prevented the death seen with alcohol	moderately prevented the alcohol-induced growth restrictions	moderately prevented the alcohol-induced growth restriction	~10 nM	60%	
SALLRSIPA		did not prevent the alcohol-induced fetal weight reduction				moderately prevented the alcohol-induced fetal brain weight reduction
vasoactive intestinal peptide (HSDAVFTDNYTRLRKQMAVKKYLNSILN; ends and bridges not checked; UniProt P01282 125-152, looked up) [VIP, neuropeptide that is a regulator of early postimplantation mouse embryonic growth, reference compound]	did not reverse the fetal death rate	improved embryonic weights; however, the effect was intermediate and not statistically significant				
